These results are taken from patent EP0539088B1, “Echinocandin b derivative” (MERCK & CO. INC., priority 1991, dated 1993).

Where a name gives a salt, the structure may show the parent alone.

The subject of one data set is red blood cells. The experiment in a line: Red blood cell lysis, minimum lytic concentration. In kind it is cell-based, human. From the text:
A harmful and potentially fatal side reaction of a number of drugs including certain antibiotically active echinocandin compounds is red blood cell lysis. […] The blood cell lysis property may be seen in the determination carried out in the following manner.
The blood employed is a 4 percent suspension of freshly drawn heparinized blood prepared by adding 2 milliliters of blood to 50 milliliters of sterile 5 percent dextrose.
Compound I was solubilized in a small volume of dimethylsulfoxide (DMSO) that was then diluted with distilled water to a final concentration of 5 percent DMSO to obtain a drug suspension of 4.0 mg/ml. A 0.2 milliliter amount of the drug suspension was added to 1.4 milliliters of sterile 5 percent dextrose to obtain the test suspension. A diluent control was also prepared.
A 96-well microliter plate with a well volume of 0.35 ml was used for the assay. Columns 2-12 were filled with 150 µl of sterile 5 percent dextrose. Then, 300 µl of test suspensions were dispensed into the wells in column 1 and serially two-fold diluted in 5 percent dextrose to yield final test concentrations of from 400 to 0.20 µg/ml. […]

For data set [1], the system named is Candida albicans (MY 1055). Nature of the data set: In vivo kidney CFU reduction in mice infected with Candida albicans. Set-up: species or system female DBA/2 mice. The following applies: 0.4 mg/kg I.P. twice daily for four consecutive days; kidneys after seven days. The method, then: Growth from an overnight SDA culture of Candica albicans MY 1055 was suspended in sterile saline and the cell concentration determined by hemacytometer count and the cell suspension adjusted to 3.75 x 10^5 cells/ml. Then 0.2 milliliter of this suspension was administered I.V. in the tail vein of mice so that the final inoculum was 7.5 x 10^4 cells/mouse.
The assay then was carried out by administering aqueous solutions of Compound I at various concentrations intraperitoneally (I.P.), twice daily (b.i.d.) for four consecutive days to 18 to 20 gram female DBA/2 mice, which previously had been infected with Candida albicans (MY 1055) in the manner described above. Distilled water was administered I.P. to C. albicans challenged mice as controls. After seven days, the mice were sacrificed by carbon dioxide gas, paired kidneys were removed aseptically and placed in sterile polyethylene bags containing 5 milliters of sterile saline. The kidneys were homogenized in the bags, serially diluted in sterile saline and aliquots spread on the surface of SDA plates. The plates were incubated at 35°C for 48 hours and yeast colonies were enumerated for determination of colony forming units (CFU) per gram of kidneys.

A further data set concerns Candida albicans MY 1055. The experiment in a line: Minimum fungicidal concentration (MFC), microbroth dilution assay in YNBD. In kind it is cell-based. To be noted: MY1055, 35°C 24 hours, then SDA 24 hours at 28°C. An excerpt:
(§1) The compounds of the present invention are active against many fungi and as previously indicated particularly against Candida species. The antifungal properties may be illustrated with the minimum fungicidal concentration (MFC) determination against certain Candida organisms in a microbroth dilution assay carried out in a Yeast Nitrogen Base (Difco) medium with 1 percent dextrose (YNBD).
(§2) In carrying out the assay, Compound I was solubilized in 10 percent dimethyl sulfoxide (DMSO) and diluted to 2560 µg/ml. The compound was then diluted to 256 µg/ml in YNBD. 0.15 mL of the suspension was dispensed to the top row of a 96-well plate (each well containing 0.15 ml of YNBD) resulting in a drug concentration of 128 µg/ml. Two-fold dilutions were then made from the top row to obtain final drug concentrations ranging from 128 to 0.06 µg/ml. […]
(§3) 96-well microplates were inoculated-using a MIC-2000 (Dynatech) which delivers […] per well yielding a final inoculum per well of 1.5-7.5 x 10^3 cells. […] The minimum inhibitory concentrations (MICs) were recorded as the lowest concentrations of drug showing no visible growth.
(§4) After recording the MIC, the plates were shaken to resuspend the cells. […] The inoculated trays were incubated 24 hours at 28°C and then read for minimum fungicidal concentration (MFC). […]

The subject of the next data set is Candida albicans MY 1028. The data set is described as above. In kind it is cell-based. The following applies: MY1028, 35°C 24 hours, then SDA 24 hours at 28°C.
From the text: as §1, §2, §3, §4

As usually defined, the MFC is the lowest tested concentration that kills the fungus rather than only halting it. The low end stands for more potent killing, the high end for less potent killing. In the case of `CCC(C)CC(C)CCCCCCCCC(=O)NC1CC(O)C(OCCN)NC(=O)C2C(O)CCN2C(=O)C(C(O)CC(N)=O)NC(=O)C(C(O)C(O)c2ccc(O)cc2)NC(=O)C2CC(O)CN2C(=O)C(C(C)O)NC1=O` (centres unmarked) [Compound I, 1-[4-hydroxy-5-aminoethyloxy-N^2-(10,12-dimethyl-1-oxotetradecyl)-ornithine]-5-(3-hydroxyglutamine)-6-(3-hydroxyproline)-echinocandin B trifluoroacetate], the “red blood cell lysis” value in the data set with red blood cells (at concentrations far beyond what would be used for therapeutic purposes) is “no red blood cell lysis”. For the same molecule, in the data set with red blood cells (lowest concentration producing complete or partial lysis, 2 hours at room temperature, tested 400 to 0.20 µg/ml), the “Minimum lytic concentration (MLC)” value came out at 400 µg/mL. In data set [1], the “reduction of recoverable Candida CFUs” value is recorded as “greater than 99%”. Also, the values for the MFC against Candida albicans MY 1055 and against Candida albicans MY 1028 were 0.125 µg/mL and 0.25 µg/mL, respectively.
